Test results taken from PubChem BioAssay (NCI).
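Five compound concentrations were applied to cells in 96-well plates for 48 hours; endpoints were derived by simple linear interpolation of the resulting dose-response curve. The concentration for full growth arrest is given as TGI.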

Tests used:
Test in all cases: growth of human tumour cells (NCI), 48 h
U251 CNS = tested on: U251 CNS
SK-MEL-28 melanoma = tested on: SK-MEL-28 melanoma
SNB-75 CNS = tested on: SNB-75 CNS
OVCAR-3 ovarian = tested on: OVCAR-3 ovarian
SN12C renal = tested on: SN12C renal
K-562 leukemia = tested on: K-562 leukemia
SF-295 CNS = tested on: SF-295 CNS
SF-268 CNS = tested on: SF-268 CNS
HOP-62 NSCLC = tested on: HOP-62 NSCLC
MDA-N = tested on: MDA-N
LOX IMVI melanoma = tested on: LOX IMVI melanoma
UACC-257 melanoma = tested on: UACC-257 melanoma
A549 NSCLC = tested on: A549 NSCLC
NCI-H226 lung = tested on: NCI-H226 lung
MCF7 breast = tested on: MCF7 breast
MALME-3M melanoma = tested on: MALME-3M melanoma
OVCAR-4 ovarian = tested on: OVCAR-4 ovarian
HOP-92 NSCLC = tested on: HOP-92 NSCLC
MOLT-4 leukemia = tested on: MOLT-4 leukemia
BT-549 breast = tested on: BT-549 breast
SK-OV-3 ovarian = tested on: SK-OV-3 ovarian
OVCAR-5 ovarian = tested on: OVCAR-5 ovarian
PC-3 prostate = tested on: PC-3 prostate
NCI-H460 lung = tested on: NCI-H460 lung
MDA-MB-231 breast = tested on: MDA-MB-231 breast
A498 renal = tested on: A498 renal
M14 melanoma = tested on: M14 melanoma
HCT-15 colon = tested on: HCT-15 colon
SR leukemia = tested on: SR leukemia
CCRF-CEM leukemia = tested on: CCRF-CEM leukemia
OVCAR-8 ovarian = tested on: OVCAR-8 ovarian
RXF 393 renal = tested on: RXF 393 renal
MDA-MB-435 = tested on: MDA-MB-435
UACC-62 melanoma = tested on: UACC-62 melanoma
HL-60(TB) leukemia = tested on: HL-60(TB) leukemia
SF-539 CNS = tested on: SF-539 CNS
DU-145 prostate = tested on: DU-145 prostate
TK-10 renal = tested on: TK-10 renal
EKVX NSCLC = tested on: EKVX NSCLC
NCI/ADR-RES ovarian = tested on: NCI/ADR-RES ovarian
NCI-H23 lung = tested on: NCI-H23 lung
SW-620 colon = tested on: SW-620 colon
IGROV1 ovarian = tested on: IGROV1 ovarian
CAKI-1 renal = tested on: CAKI-1 renal
HCT-116 colon = tested on: HCT-116 colon
HS 578T breast = tested on: HS 578T breast
SK-MEL-5 melanoma = tested on: SK-MEL-5 melanoma
UO-31 renal = tested on: UO-31 renal
SK-MEL-2 melanoma = tested on: SK-MEL-2 melanoma
COLO 205 colon = tested on: COLO 205 colon
T-47D breast = tested on: T-47D breast
HT29 colon = tested on: HT29 colon
HCC-2998 colon = tested on: HCC-2998 colon
ACHN renal = tested on: ACHN renal
KM12 colon = tested on: KM12 colon
NCI-H522 lung = tested on: NCI-H522 lung
786-0 renal = tested on: 786-0 renal
RPMI-8226 leukemia = tested on: RPMI-8226 leukemia
SNB-19 CNS = tested on: SNB-19 CNS

Measured: TGI

CO/N=C1/c2sccc2[C@H](NC(=O)C(F)(F)F)[C@@H]1O
not listed: ACHN renal | KM12 colon | NCI-H522 lung | 786-0 renal | RPMI-8226 leukemia | SNB-19 CNS
> 100 µM: all other assays above

COc1ccc2c(=O)c3cc([N+](=O)[O-])ccc3n(C)c2c1
not listed: HOP-62 NSCLC | SK-OV-3 ovarian | NCI-H23 lung | HCT-116 colon | HT29 colon
> 100 µM: all other assays above
